Measurements reported in patent US20060069132A1, “Azolecarboxamide herbicides” (priority 2004, published 2006).

How the values were obtained:
[1] = system: goosegrass; assay: Test C pre-/postemergence herbicide test; format: in vivo, Eleusine indica; settings: for Goosegrass plant response rating: 500 g ai/ha
In short: (§1)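 Pre/post spray; non-phytotoxic solvent + surfactant. Post-timing 1–4 leaves, 2–18 cm. Read-out: visual % control vs untreated, day 12–14, greenhouse.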

[2] = system: rice; assay: Test B pre-/postemergence herbicide test; format: in vivo, Oryza sativa; settings: for Plant response rating, Rice: preemergence, 125 g ai/ha, 0 to 100 scale, 0 is no effect, 100 is complete control
In short: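 Species tested were Echinochloa crus-galli, Ipomoea coccinea, Xanthium strumarium and Oryza sativa, treated both before emergence and at the 1- to 4-leaf stage; rice and barnyardgrass were also tested under flooding at 2 leaves. Greenhouse incubation lasted 13–15 days before visual 0–100 scoring.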

[3] = system: woolly cupgrass; assay: Test C pre-/postemergence herbicide test; format: in vivo, Eriochloa villosa; settings: for Cupgrass, Woolly plant response rating: 500 g ai/ha
In short: as §1

[4] = system: morningglory; assay: Test A pre-/postemergence herbicide test; format: in vivo, Ipomoea spp.
In short: (§2)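 Greenhouse injury scoring (0–100, complete control = 100) at approximately ten days follows simultaneous pre- and postemergence application. Soil received a directed spray after seeding; seedlings of 2–10 cm at the one- to two-leaf stage were sprayed to runoff.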

[5] = system: bermudagrass; assay: Test C pre-/postemergence herbicide test; format: in vivo, Cynodon dactylon
In short: as §1

[6] = system: soybean; assay: Test C pre-/postemergence herbicide test; format: in vivo, Glycine max; settings: for Soybean plant response rating: 500 g ai/ha
In short: as §1

[7] = system: morningglory; assay: Test C pre-/postemergence herbicide test; format: in vivo, Ipomoea coccinea; design: key to Plant response rating, Morningglory: 0 = no effect, 100 = complete control; settings: for Morningglory plant response rating: 500 g ai/ha
In short: as §1

[8] = system: velvetleaf; assay: Test A pre-/postemergence herbicide test; format: in vivo, Abutilon theophrasti
In short: as §2

[9] = system: velvetleaf; assay: Test B pre-/postemergence herbicide test; format: in vivo, Abutilon theophrasti
In short: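 Greenhouse pot assay with simultaneous preemergence (treated seed) and postemergence (2–18 cm seedlings) applications of surfactant-containing, non-phytotoxic solvent formulations. Response scored visually 13–15 days later on a 0–100 scale, 100 meaning complete control.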

[10] = 125 g ai/ha, scale 0 (no effect) to 100 (complete control), visual, 12 to 14 days, preemergence
[11] = 250 g ai/ha, scale 0 to 100 (0 no effect, 100 complete control), visual, 12 to 14 days, preemergence
[12] = Postemergence, 125 g ai/ha, scale 0 to 100, 0 no effect, 100 complete control
[13] = Postemergence, 250 g ai/ha, scale 0 to 100, 0 no effect, 100 complete control
[14] = Preemergence, scale 0 to 100, 0 no effect, 100 complete control
[15] = postemergence, 62 g ai/ha, scale 0 to 100
[16] = Preemergence, 500 g ai/ha, scale 0 to 100
[17] = Postemergence, 500 g ai/ha, 0 to 100 scale, 0 no effect, 100 complete control
[18] = Postemergence, 2000 g ai/ha, 0 to 100 scale, 0 no effect, 100 complete control
[19] = Preemergence, 500 g ai/ha, visual rating, 0 to 100 scale (0 no effect, 100 complete control)
[20] = Preemergence, 2000 g ai/ha, 0 to 100 scale, 0 no effect, 100 complete control
[21] = Postemergence, 500 g ai/ha, scale 0 to 100
[22] = Preemergence, 500 g ai/ha, scale 0 to 100, 0 no effect, 100 complete control
[23] = Postemergence, 500 g ai/ha, visual rating after 13 to 15 days, scale 0 (no effect) to 100 (complete control)
[24] = postemergence, 125 g ai/ha, visual rating, scale 0 (no effect) to 100 (complete control)
[25] = preemergence, 125 g ai/ha, 0 to 100 scale, 0 is no effect, 100 is complete control
[26] = Preemergence, 2000 g ai/ha, visual rating, 0 to 100 scale (0 no effect, 100 complete control)
[27] = postemergence, 125 g ai/ha, scale 0 to 100

CCNC(=O)c1cc(NC(=O)c2cc(C(C)(C)C)nn2CC)ccc1F [Compound 58]
Plant response rating (0 = no effect, 100 = complete control), Goosegrass ([1]; 62 g ai/ha, preemergence): 90 | Plant response rating, Goosegrass [1, 10]: 95 | Plant response rating, Goosegrass [1, 11]: 95 | Goosegrass plant response rating ([1]; Postemergence, scale 0 to 100): 30 | Plant response rating, Goosegrass [1, 12]: 5 | Plant response rating, Goosegrass [1, 13]: 10 | Goosegrass plant response rating [1, 14]: 95 | Plant response rating, Goosegrass [1, 15]: 0 | Rice plant response rating [2, 16]: 80 | Plant response rating, Rice [2]: 60 | Plant response rating (0 = no effect, 100 = complete control), Cupgrass, Woolly ([3]; 62 g ai/ha, preemergence): 0 | Plant response rating, Cupgrass, Woolly [3, 10]: 40 | Plant response rating, Cupgrass, Woolly [3, 11]: 60 | Cupgrass, Woolly plant response rating ([3]; Postemergence, scale 0 to 100): 20 | Plant response rating, Cupgrass, Woolly [3, 12]: 5 | Plant response rating, Cupgrass, Woolly [3, 13]: 20 | Cupgrass, Woolly plant response rating [3, 14]: 80 | Plant response rating, Cupgrass, Woolly [3, 15]: 5 | Plant response rating, Morningglory [4, 17]: 10 | Plant response rating, Morningglory [4, 18]: 0 | Morningglory plant response rating [4, 19]: 20 | Morningglory plant response rating [4, 20]: 40 | Plant response rating (0 = no effect, 100 = complete control), Bermudagrass ([5]; 62 g ai/ha, preemergence): 90 | Plant response rating, Bermudagrass [5, 10]: 100 | Plant response rating, Bermudagrass [5, 11]: 100 | Bermudagrass plant response rating [5, 21]: 10 | Plant response rating, Bermudagrass [5, 12]: 5 | Bermudagrass plant response rating ([5]; Postemergence, 250 g ai/ha, scale 0 to 100): 10 | Bermudagrass plant response rating [5, 22]: 100 | Plant response rating, Bermudagrass [5, 15]: 0 | Plant response rating (0 = no effect, 100 = complete control), Soybean ([6]; 62 g ai/ha, preemergence): 0 | Plant response rating, Soybean [6, 10]: 5 | Plant response rating, Soybean [6, 11]: 25 | Soybean plant response rating ([6]; Postemergence, scale 0 to 100): 90 | Plant response rating, Soybean [6, 13]: 80 | Soybean plant response rating [6, 14]: 40 | Plant response rating, Soybean [6, 15]: 15 | Plant response rating (0 = no effect, 100 = complete control), Morningglory ([7]; 62 g ai/ha, preemergence): 10 | Plant response rating, Morningglory [7, 10]: 20 | Plant response rating, Morningglory [7, 11]: 50 | Morningglory plant response rating ([7]; Postemergence, scale 0 to 100): 20 | Plant response rating, Morningglory [7, 13]: 10 | Morningglory plant response rating [7, 14]: 80 | Plant response rating, Morningglory [7, 15]: 10 | Plant response rating, Velvetleaf [8, 18]: 40 | Velvetleaf plant response rating [8, 19]: 70 | Velvetleaf plant response rating [8, 20]: 65 | Plant response rating, Velvetleaf [9, 23]: 70 | Velvetleaf plant response rating [9, 16]: 100 | Velvetleaf plant response rating [9, 24]: 50 | Plant response rating, Velvetleaf [9, 25]: 60

CCn1nc(C(C)(C)C)cc1C(=O)Nc1cccc2c1CCN(C1CC1)C2=O [Compound 64]
Plant response rating (0 = no effect, 100 = complete control), Goosegrass ([1]; 62 g ai/ha, preemergence): 0 | Plant response rating, Goosegrass [1, 10]: 10 | Goosegrass plant response rating [1, 14]: 70 | Plant response rating, Rice [2]: 0 | Plant response rating (0 = no effect, 100 = complete control), Cupgrass, Woolly ([3]; 62 g ai/ha, preemergence): 0 | Plant response rating, Cupgrass, Woolly [3, 10]: 0 | Plant response rating, Cupgrass, Woolly [3, 11]: 0 | Cupgrass, Woolly plant response rating [3, 14]: 10 | Plant response rating, Morningglory [4, 17]: 10 | Plant response rating, Morningglory [4, 18]: 10 | Morningglory plant response rating [4, 19]: 0 | Morningglory plant response rating [4, 20]: 5 | Plant response rating (0 = no effect, 100 = complete control), Bermudagrass ([5]; 62 g ai/ha, preemergence): 0 | Plant response rating, Bermudagrass [5, 10]: 30 | Plant response rating, Bermudagrass [5, 11]: 85 | Bermudagrass plant response rating [5, 22]: 90 | Plant response rating (0 = no effect, 100 = complete control), Soybean ([6]; 62 g ai/ha, preemergence): 0 | Plant response rating, Soybean [6, 10]: 0 | Soybean plant response rating [6, 14]: 60 | Plant response rating (0 = no effect, 100 = complete control), Morningglory ([7]; 62 g ai/ha, preemergence): 0 | Plant response rating, Morningglory [7, 10]: 0 | Morningglory plant response rating [7, 14]: 0 | Plant response rating, Velvetleaf [8, 18]: 30 | Velvetleaf plant response rating [8, 19]: 10 | Velvetleaf plant response rating [8, 26]: 35 | Plant response rating, Velvetleaf [9, 23]: 10 | Velvetleaf plant response rating [9, 24]: 10 | Plant response rating, Velvetleaf [9, 25]: 0

CCCN1CCc2c(NC(=O)c3cc(C(C)(C)C)nn3CC)cccc2C1=O [Compound 65]
Plant response rating (0 = no effect, 100 = complete control), Goosegrass ([1]; 62 g ai/ha, preemergence): 0 | Plant response rating, Goosegrass [1, 10]: 30 | Goosegrass plant response rating [1, 14]: 80 | Plant response rating, Rice [2]: 10 | Plant response rating (0 = no effect, 100 = complete control), Cupgrass, Woolly ([3]; 62 g ai/ha, preemergence): 0 | Plant response rating, Cupgrass, Woolly [3, 10]: 0 | Plant response rating, Cupgrass, Woolly [3, 11]: 10 | Cupgrass, Woolly plant response rating [3, 14]: 10 | Plant response rating, Morningglory [4, 17]: 10 | Plant response rating, Morningglory [4, 18]: 10 | Morningglory plant response rating [4, 19]: 5 | Morningglory plant response rating [4, 20]: 5 | Plant response rating (0 = no effect, 100 = complete control), Bermudagrass ([5]; 62 g ai/ha, preemergence): 40 | Plant response rating, Bermudagrass [5, 10]: 85 | Plant response rating, Bermudagrass [5, 11]: 95 | Bermudagrass plant response rating [5, 22]: 95 | Plant response rating (0 = no effect, 100 = complete control), Soybean ([6]; 62 g ai/ha, preemergence): 0 | Plant response rating, Soybean [6, 10]: 0 | Soybean plant response rating [6, 14]: 20 | Plant response rating (0 = no effect, 100 = complete control), Morningglory ([7]; 62 g ai/ha, preemergence): 0 | Plant response rating, Morningglory [7, 10]: 0 | Morningglory plant response rating [7, 14]: 10 | Plant response rating, Velvetleaf [8, 18]: 25 | Velvetleaf plant response rating [8, 19]: 10 | Velvetleaf plant response rating [8, 26]: 30 | Plant response rating, Velvetleaf [9, 23]: 10 | Velvetleaf plant response rating [9, 24]: 10 | Plant response rating, Velvetleaf [9, 25]: 10

CCCCOC(=O)c1cccc(NC(=O)c2cc(C(C)(C)C)nn2CC)c1 [Compound 86]
Goosegrass plant response rating ([1]; Postemergence, scale 0 to 100): 85 | Plant response rating, Goosegrass [1, 13]: 80 | Plant response rating, Goosegrass [1, 27]: 60 | Plant response rating, Goosegrass [1, 15]: 50 | Plant response rating, Rice [2]: 0 | Cupgrass, Woolly plant response rating ([3]; Postemergence, scale 0 to 100): 85 | Plant response rating, Cupgrass, Woolly [3, 13]: 80 | Plant response rating, Cupgrass, Woolly [3, 27]: 70 | Plant response rating, Cupgrass, Woolly [3, 15]: 50 | Morningglory plant response rating [4, 17]: 20 | Plant response rating, Morningglory [4, 18]: 35 | Morningglory plant response rating [4, 19]: 0 | Morningglory plant response rating [4, 20]: 15 | Bermudagrass plant response rating [5, 21]: 100 | Plant response rating, Bermudagrass [5, 13]: 30 | Plant response rating, Bermudagrass [5, 15]: 10 | Soybean plant response rating ([6]; Postemergence, scale 0 to 100): 95 | Plant response rating, Soybean [6, 13]: 90 | Plant response rating, Soybean [6, 27]: 70 | Plant response rating, Soybean [6, 15]: 45 | Morningglory plant response rating ([7]; Postemergence, scale 0 to 100): 85 | Plant response rating, Morningglory [7, 13]: 85 | Plant response rating, Morningglory [7, 27]: 75 | Plant response rating, Morningglory [7, 15]: 10 | Velvetleaf plant response rating [8, 17]: 40 | Plant response rating, Velvetleaf [8, 18]: 30 | Velvetleaf plant response rating [8, 19]: 0 | Velvetleaf plant response rating [8, 26]: 10 | Plant response rating, Velvetleaf [9, 23]: 70 | Velvetleaf plant response rating [9, 24]: 60 | Plant response rating, Velvetleaf [9, 25]: 0
